Results reported in patent US7932270B2 (Cytokinetics, Inc., priority 2006, dated 2011).

Molecular target: T1, chicken gizzard smooth muscle myosin subfragment-1 chemically crosslinked to cardiac or skeletal actin (Gallus gallus, UniProt P10587)
T1 construct: chicken gizzard smooth muscle myosin subfragment-1; from tissue; host or cells: chicken gizzard
Assay: Smooth muscle myosin ATPase dose response assay (pyruvate kinase/horseradish peroxidase/pyruvate oxidase-coupled, amplex red fluorescence)
Assay type: biochemical
Conditions: read-out: IC50 Arithmetic Mean
Summary of the method: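 Inhibition is measured in a peroxidase/pyruvate oxidase-linked format at pH 7.00 and 22° C, 0.15 mM ATP final. Myosin input is titrated to a target turnover since active fraction differs between preparations.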

T1 sequence (P02607 2-151): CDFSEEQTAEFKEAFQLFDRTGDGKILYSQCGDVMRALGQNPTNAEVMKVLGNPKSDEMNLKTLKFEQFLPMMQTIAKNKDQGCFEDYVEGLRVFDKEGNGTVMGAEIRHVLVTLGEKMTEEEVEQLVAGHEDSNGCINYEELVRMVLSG
T1 sequence (P10587 84-789): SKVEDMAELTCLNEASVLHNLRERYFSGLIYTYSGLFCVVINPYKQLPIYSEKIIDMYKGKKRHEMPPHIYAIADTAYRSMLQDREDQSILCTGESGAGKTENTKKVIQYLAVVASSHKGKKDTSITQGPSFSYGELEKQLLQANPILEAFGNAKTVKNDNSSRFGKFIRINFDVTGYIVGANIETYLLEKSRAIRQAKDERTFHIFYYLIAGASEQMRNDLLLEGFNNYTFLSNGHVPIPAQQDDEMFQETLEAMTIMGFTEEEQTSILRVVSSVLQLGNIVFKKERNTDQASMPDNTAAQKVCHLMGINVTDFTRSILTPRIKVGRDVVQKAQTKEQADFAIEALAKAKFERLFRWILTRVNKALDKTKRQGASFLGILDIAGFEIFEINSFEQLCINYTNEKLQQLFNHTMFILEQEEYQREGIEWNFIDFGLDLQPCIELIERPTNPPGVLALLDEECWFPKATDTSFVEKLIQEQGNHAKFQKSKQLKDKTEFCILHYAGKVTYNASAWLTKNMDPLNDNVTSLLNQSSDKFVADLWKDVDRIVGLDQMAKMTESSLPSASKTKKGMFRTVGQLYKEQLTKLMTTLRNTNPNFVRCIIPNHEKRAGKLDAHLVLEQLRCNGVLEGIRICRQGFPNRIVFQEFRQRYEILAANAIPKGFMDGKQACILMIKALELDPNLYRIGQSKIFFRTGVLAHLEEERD

Row | Structure (SMILES) | IC50
1 | CC(C)(C)OC(=O)NCCn1ccc(CNC(=O)c2ccc(-c3ccccc3C#N)nc2NCCc2cccc(F)c2)n1 [N-[(1-{2-[(tert-butoxy)carbonylamino]ethyl}pyrazol-3-yl)methyl](6-(2-cyanophenyl)-2-{[2-(3-fluorophenyl)ethyl]amino}(3-pyridyl))carboxamide] | 2730 nM
2 | CS(=O)(=O)N1CCCC(CNC(=O)c2ccc(-c3ccccc3)nc2NCCc2ccccn2)C1 (stereo not drawn) [N-{[1-(methylsulfonyl)(3-piperidyl)]methyl}{6-phenyl-2-[(2-(2-pyridyl)ethyl)amino](3-pyridyl)}carboxamide] | 20300 nM
3 | C[C@@H](CNC(=O)CNC(=O)OC(C)(C)C)CNC(=O)c1cc(F)c(-c2cnn(C)c2)nc1NCCc1cccc(F)c1 [N-{(2R)-3-[(5-fluoro-2-{[2-(3-fluorophenyl)ethyl]amino}-6-(1-methylpyrazol-4-yl)(3-pyridyl))carbonylamino]-2-methylpropyl}-2-[(tert-butoxy)carbonylamino]acetamide] | 373 nM
4 | N#Cc1ccccc1-c1ccc(C(=O)NC[C@H]2CNCCN2C(=O)CN)c(NCCc2cccc(F)c2)n1 [N-{[(2R)-1-(2-aminoacetyl)piperazin-2-yl]methyl}(6-(2-cyanophenyl)-2-{[2-(3-fluorophenyl)ethyl]amino}(3-pyridyl))carboxamide] | 2780 nM
5 | O=C(Nc1ccccn1)c1ccc(-c2ccccc2)nc1NCCc1ccccn1 [{6-phenyl-2-[(2-(2-pyridyl)ethyl)amino](3-pyridyl)}-N-(2-pyridyl)carboxamide] | 7190 nM
6 | O=C(NCc1cccnc1)c1ccc(-c2ccncc2)nc1NCCc1ccccn1 [N-(3-pyridylmethyl){6-(4-pyridyl)-2-[(2-(2-pyridyl)ethyl)amino](3-pyridyl)}carboxamide] | 6560 nM
7 | NCCCN1C(=O)CNC[C@@H]1CNC(=O)c1ccc(-c2cc[nH]n2)nc1NCCc1cccc(F)c1 [N-{[(2R)-1-(3-aminopropyl)-6-oxopiperazin-2-yl]methyl}(2-{[2-(3-fluorophenyl)ethyl]amino}-6-pyrazol-3-yl(3-pyridyl))carboxamide] | 9630 nM
8 | Cn1cc(-c2ccc(C(=O)NCC3CNCC(=O)N3)c(NCCc3cccc(F)c3)n2)cn1 (stereo not drawn) [(2-{[2-(3-fluorophenyl)ethyl]amino}-6-(1-methylpyrazol-4-yl)(3-pyridyl))-N-[(6-oxopiperazin-2-yl)methyl]carboxamide] | 1240 nM
9 | O=C(NCc1cccnc1)c1ccc(-c2ccccc2O)nc1NCCc1ccccn1 [{6-(2-hydroxyphenyl)-2-[(2-(2-pyridyl)ethyl)amino](3-pyridyl)}-N-(3-pyridylmethyl)carboxamide] | 2170 nM
10 | N#Cc1ccccc1-c1ccc(C(=O)NCCNC(=O)CN)c(NCCc2cccc(F)c2)n1 [2-amino-N-{2-[(6-(2-cyanophenyl)-2-{[2-(3-fluorophenyl)ethyl]amino}(3-pyridyl))carbonylamino]ethyl}acetamide] | 1230 nM

Continued by falling IC50, values first:

Row | IC50 | Structure (SMILES)
11 | 1190 nM | CC(C)(C)OC(=O)NCc1cccc(CNC(=O)c2ccc(-c3ccccc3C#N)nc2NCCc2cccc(F)c2)n1
12 | 399 nM | N#Cc1ccccc1-c1ccc(C(=O)NC[C@H]2CCCCN2C(=O)[C@H](N)CCN)c(NCCc2cccc(F)c2)n1 [N-{[(2R)-1-((2R)-2,4-diaminobutanoyl)(2-piperidyl)]methyl}(6-(2-cyanophenyl)-2-{[2-(3-fluorophenyl)ethyl]amino}(3-pyridyl))carboxamide]
13 | 197 nM | C[C@H](CNC(=O)c1cc(F)c(-c2cnn(C)c2)nc1NCCc1cccc(F)c1)NC(=O)CO
14 | 133 nM | N#Cc1ccccc1-c1ccc(C(=O)NC[C@H]2CCCN2C(=O)CCCN)c(NCCC2=CCCCC2)n1 [N-{[(2R)-1-(4-aminobutanoyl)pyrrolidin-2-yl]methyl}{6-(2-cyanophenyl)-2-[(2-cyclohex-1-enylethyl)amino](3-pyridyl)}carboxamide]
15 | 117 nM | O=C(NCc1cccc(Br)n1)c1ccc(-c2cn[nH]c2)nc1NCCc1cccc(F)c1 [N-[(6-bromo(2-pyridyl))methyl](2-{[2-(3-fluorophenyl)ethyl]amino}-6-pyrazol-4-yl(3-pyridyl))carboxamide]
